The values below are quoted from earlier work in article PMC10287555, “Camonsertib in DNA damage response-deficient advanced solid tumors: phase 1 trial results” (Nature Medicine, 2023).

In this data set the test system is advanced solid tumors. To be noted: combination with gemcitabine; cited from earlier work.

For `CNCc1ccc(-c2cc(-c3nc(-c4ccc(S(=O)(=O)C(C)C)cc4)cnc3N)on2)cc1` [berzosertib], the “Response rate in TMB-H NSCLC versus patients without elevated TMB” value is recorded as “higher response rates”.
